Results from patent US8809343B2, “Pyrimidine derivative, preparation method and use thereof” (Fudan University, priority 2008, dated 2014).
Read-outs that look alike come from different tables or passages of the source.

Experiments:
[1] = Cell toxicity in uninfected MT-4 cells (MTT method); type: cell-based; settings: human
Protocol: (§1) Anti-virus activity of cells in vitro was determined by Rega Institute for Medical of […] Katholleke University, consisting mainly: inhibitory activity towards HIV-infected MT-4 cells and cell toxicity. The method is described below: exert the compound on the HIV-infected ME-4 cells, and determine the protection of the drug on the cell lesions induced by HIV at varied HIV-infection intervals, calculate the half effective concentration IC50, the required concentration that protect 50% of cells from cell lesions induced by HIV. Toxicity determination is carried out in parallel with anti-HIV activity experiments, also in the cultured MT-4 cells, determine the CC50, the concentration that leads 50% of uninfected cells to cell lesions, and calculate the selectivity index SI=CC50/IC50 with the MTT method.
(§2) The detailed operation is as follows: the compound is dissolved with DMSO or water and diluted with phosphate buffer saline, 3×10^5 MT-4 cells are cultured with 100 μL various concentrations of compounds for 1 h, then 100 μL suitable virus dilution is added to the compound, and the cells are cultured at 37° C. for 1 h. After being washed for 3 times, the cells are suspended again in the culture media containing or not compounds individually. Subsequently, the cells are transferred to the atmosphere containing 5% CO2 and cultured for 7 days at 37° C., and culture media containing or not compounds are used to replace or supplement the culture solution on the third day after infection. Kinds of culture conditions should be duplicated. The cell lesions caused by virus are monitored with reverse light microscopy everyday. Typically, the virus dilution applied in the present experiments generally cause cell lesion on the fifth day after infection. […] It should be emphasized that, when the compound is poorly water-soluble and can only be dissolved in DMSO, the ratio of DMSO to water is generally below 10% (the final concentration of DMSO in MT-4 cell culture media is smaller than 2%). Because DMSO can influence the anti-virus activity of the tested compounds, blank tests on the solution containing the same concentration of DMSO should be conducted in parallel. Additionally, the final concentration of DMSO is far below the concentration required to influence the replication of HIV-1 in T cells.

[2] = system: HIV-1 IIIB strain; test: Anti-HIV activity: protection of HIV-infected MT-4 cells from virus-induced cell lesions; type: cell-based; settings: for EC50: Human immunodeficiency virus 1, IIIB
Protocol: as §1
(§3) Anti-HIV activity of various compounds is monitored by the inhibitory efficiency of drugs on the cell lesions induced by HIV. Carry out cell culture with MT-4 cells. The adopted virus strains are HIV-1 IIIB strain and drug-resistant viral strain of […].
as §2

[3] = system: drug-resistant viral strain of L103N+Y181C; test: Anti-HIV activity in MT-4 cells, drug-resistant viral strain; type: cell-based, HIV-1
Protocol: as §1, §3, §2

[4] = target: T1, HIV-1 RT (Human immunodeficiency virus type 1 group M subtype B, UniProt P03366); test: In vitro anti HIV-1 reverse transcriptase screening (Biotin-dUTP, OD450); type: biochemical
T1 construct: Screening for in vitro activity of anti HIV-1 reverse transcriptase (HIV-1 RT); made in house

[5] = HIV-1 IIIB, MT-4 cells, Table 1
[6] = Human immunodeficiency virus 1, MT4, read-out: EC50 103N + 181C, MT-4 cells, Table 1
[7] = Human immunodeficiency virus 1, MT4, read-out: EC50 103N + 181C, MT-4 cells, Table 2
[8] = MT4, read-out: EC50 HIV-1(IIIB)

Compound | SI (Selectivity index, the ratio of CC50/IC50) [2, 5] | SI (Selectivity index, the ratio of CC50/IC50) ([2]; WT(IIIB), Table 2) | EC50 [3, 6] [µM] | EC50 [3, 7] [µM] | CC50 at 7 days ([1]; uninfected MT-4 cells, Table 1) [µM] | EC50 [2, 8] [µM] | CC50 at 7 days ([1]; uninfected MT-4 cells, Table 2) [µM] | EC50 ([2]; MT4, read-out: EC50 WT(IIIB)) [µM] | IC50 [4] [µM] | other results
O=C1Nc2ccc(Cl)cc2[C@@](C#CC2CC2)(C(F)(F)F)O1 [EFV, efavirenz, reference compound] | >1434 | >1434 | 560 | 0.56 | – | – | – | – | – | CC50 at 7 days ([1]; Table 1): 4.3 µM; CC50 at 7 days ([1]; Table 3): > 6.34 µM; SI (Selectivity index, the ratio of CC50/IC50) ([2]; HIV-1 IIIB, MT-4 cells, Table 3): >2174; EC50 ([2]; MT4, MT-4 cells, Table 1, read-out: EC50 HIV-1(IIIB)): 0.003 µM; EC50 ([2]; MT4, MT-4 cells, Table 2, read-out: EC50 WT(IIIB)): 0.003 µM
N#Cc1ccc(Nc2nccc(Oc3cccc4cccnc34)n2)cc1 [Compound 1] | 13393 | – | ≥ 38.8 | – | 38.8 | 0.0029 | – | – | – | –
CNc1cc(Oc2cccc3cccnc23)nc(Nc2ccc(C#N)cc2)n1 [Compound 3] | 6089 | – | ≥ 54.2 | – | 54.2 | 0.0089 | – | – | – | –
COc1c(Oc2ccnc(Nc3ccc(C#N)cc3)n2)ccc2cc(C#N)ccc12 [Compound 20] | – | ≧134032 | – | 0.38 | – | – | 161 | 0.0012 | 2.29 | –
COc1cc2cc(C#N)ccc2c(OC)c1Oc1ccnc(Nc2ccc(C#N)cc2)n1 [Compound 22] | – | ≧25000 | – | 0.16 | – | – | 20 | 0.0008 | 0.0945 | –
COc1cc2cc(C#N)ccc2cc1Oc1ccnc(Nc2ccc(C#N)cc2)n1 [Compound 21] | – | >158228 | – | – | – | – | 142 | 0.0009 | 1.32 | –
COc1cc(Oc2cccc3cccnc23)nc(Nc2ccc(C#N)cc2)n1 [Compound 4] | 3299 | – | ≥ 42.2 | – | 42.2 | 0.0128 | – | – | – | –
N#Cc1ccc(Nc2nccc(Oc3ccc4cc(C#N)ccc4c3Cl)n2)cc1 [Compound 23] | – | 47964 | – | 0.7 | – | – | 86.3 | 0.0018 | – | –
N#Cc1ccc(Nc2nc(Cl)cc(Oc3cccc4cccnc34)n2)cc1 [Compound 2] | 1031 | – | ≥ 20.1 | – | 20.1 | 0.0195 | – | – | – | –
COc1cc2cc(C#N)ccc2c(Cl)c1Oc1ccnc(Nc2ccc(C#N)cc2)n1 [Compound 24] | – | ≧25701 | – | 0.15 | – | – | 15.4 | 0.0006 | – | –
